PubChem BioAssay AID1918953 (Molecular Pharmacology Branch, DTP, NCI, 2023)

Test system: MDA-MB-231 complex spheroid viability
Experiment: Anticancer human tumor MDA-MB-231/ATCC cell line growth inhibition;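 further: drug exposure lasted 7 days starting on day 3 of spheroid growth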
Settings: for IC50: curve of first compound; for viability, T/C: stronger effect = lower value
Method in brief: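 Complex spheroids of tumor cells with HUVEC and human MSCs, exposed to iadademstat combined with other agents. Each agent tested in half-log steps from near clinical Cmax (else 10 microM top), DMSO ≤0.25%.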

Work on `CC[C@@]1(O)C(=O)OCc2c1cc1n(c2=O)Cc2cc3c(CN(C)C)c(O)ccc3nc2-1` + NC1CCC(NC2CC2c2ccccc2)CC1 yielded an IC50 (second compound 0.1 µM) of 2.37 nM, an IC50 (second compound 0.316 µM) of 2.18 nM and an IC50 (second compound 1 µM) of 2.28 nM. The IC50 (second compound 3.16 µM) was 1.46 nM, the IC50 (second compound 10 µM) was 0.603 nM and the viability, T/C (second compound 0.1 µM, first compound 0.000316 µM) was 91.6%. It also gave a viability, T/C (second compound 0.1 µM, first compound 0.001 µM) of 70.6%, a viability, T/C (second compound 0.1 µM, first compound 0.00316 µM) of 40.3% and a viability, T/C (second compound 0.1 µM, first compound 0.01 µM) of 29.1%. The viability, T/C (second compound 0.1 µM, first compound 0.0316 µM) was 22.5%, the viability, T/C (second compound 0.1 µM, first compound 0.1 µM) was 13% and the viability, T/C (second compound 0.316 µM, first compound 0.000316 µM) was 87.6%. It also gave a viability, T/C (second compound 0.316 µM, first compound 0.001 µM) of 66.3%, a viability, T/C (second compound 0.316 µM, first compound 0.00316 µM) of 40% and a viability, T/C (second compound 0.316 µM, first compound 0.01 µM) of 28.9%. It also gave a viability, T/C (second compound 0.316 µM, first compound 0.0316 µM) of 22.2%, a viability, T/C (second compound 0.316 µM, first compound 0.1 µM) of 12.4% and a viability, T/C (second compound 1 µM, first compound 0.000316 µM) of 87.3%. The viability, T/C (second compound 1 µM, first compound 0.001 µM) was 69.6%, the viability, T/C (second compound 1 µM, first compound 0.00316 µM) was 38.9% and the viability, T/C (second compound 1 µM, first compound 0.01 µM) was 29.7%. The viability, T/C (second compound 1 µM, first compound 0.0316 µM) was 22.4%, the viability, T/C (second compound 1 µM, first compound 0.1 µM) was 13.2% and the viability, T/C (second compound 3.16 µM, first compound 0.000316 µM) was 74.4%. It also gave a viability, T/C (second compound 3.16 µM, first compound 0.001 µM) of 56.8%, a viability, T/C (second compound 3.16 µM, first compound 0.00316 µM) of 36.5% and a viability, T/C (second compound 3.16 µM, first compound 0.01 µM) of 28.9%. The viability, T/C (second compound 3.16 µM, first compound 0.0316 µM) was 19.9%, the viability, T/C (second compound 3.16 µM, first compound 0.1 µM) was 13.2% and the viability, T/C (second compound 10 µM, first compound 0.000316 µM) was 57.8%. The viability, T/C (second compound 10 µM, first compound 0.001 µM) was 44.2%, the viability, T/C (second compound 10 µM, first compound 0.00316 µM) was 31.3% and the viability, T/C (second compound 10 µM, first compound 0.01 µM) was 23.2%. It also gave a viability, T/C (second compound 10 µM, first compound 0.0316 µM) of 16% and a viability, T/C (second compound 10 µM, first compound 0.1 µM) of 12.2%.

With `CCc1c2c(nc3ccc(O)cc13)-c1cc3c(c(=O)n1C2)COC(=O)[C@]3(O)CC` + NC1CCC(NC2CC2c2ccccc2)CC1 the IC50 (second compound 0.1 µM) was < 0.949 nM, the IC50 (second compound 0.316 µM) was < 0.949 nM and the IC50 (second compound 1 µM) was < 0.949 nM. The IC50 (second compound 3.16 µM) was < 0.949 nM, the IC50 (second compound 10 µM) was < 0.949 nM and the viability, T/C (second compound 0.1 µM, first compound 0.000949 µM) was 17.1%. It also gave a viability, T/C (second compound 0.1 µM, first compound 0.003 µM) of 12.7%, a viability, T/C (second compound 0.1 µM, first compound 0.00949 µM) of 12% and a viability, T/C (second compound 0.1 µM, first compound 0.03 µM) of 14%. The viability, T/C (second compound 0.1 µM, first compound 0.0949 µM) was 5.37%, the viability, T/C (second compound 0.1 µM, first compound 0.3 µM) was 2.95% and the viability, T/C (second compound 0.316 µM, first compound 0.000949 µM) was 17.7%. The viability, T/C (second compound 0.316 µM, first compound 0.003 µM) was 13.5%, the viability, T/C (second compound 0.316 µM, first compound 0.00949 µM) was 12% and the viability, T/C (second compound 0.316 µM, first compound 0.03 µM) was 16%. For the same compound, the viability, T/C (second compound 0.316 µM, first compound 0.0949 µM) was 5.44%, the viability, T/C (second compound 0.316 µM, first compound 0.3 µM) was 2.86% and the viability, T/C (second compound 1 µM, first compound 0.000949 µM) was 19.1%. The viability, T/C (second compound 1 µM, first compound 0.003 µM) was 14.6%, the viability, T/C (second compound 1 µM, first compound 0.00949 µM) was 13.7% and the viability, T/C (second compound 1 µM, first compound 0.03 µM) was 15.5%. It also gave a viability, T/C (second compound 1 µM, first compound 0.0949 µM) of 4.76%, a viability, T/C (second compound 1 µM, first compound 0.3 µM) of 2.64% and a viability, T/C (second compound 3.16 µM, first compound 0.000949 µM) of 17%. The viability, T/C (second compound 3.16 µM, first compound 0.003 µM) was 15.3%, the viability, T/C (second compound 3.16 µM, first compound 0.00949 µM) was 16.5% and the viability, T/C (second compound 3.16 µM, first compound 0.03 µM) was 13.6%. For the same compound, the viability, T/C (second compound 3.16 µM, first compound 0.0949 µM) was 4.18%, the viability, T/C (second compound 3.16 µM, first compound 0.3 µM) was 1.91% and the viability, T/C (second compound 10 µM, first compound 0.000949 µM) was 13.9%. It also gave a viability, T/C (second compound 10 µM, first compound 0.003 µM) of 14%, a viability, T/C (second compound 10 µM, first compound 0.00949 µM) of 20.1% and a viability, T/C (second compound 10 µM, first compound 0.03 µM) of 13.4%. It also gave a viability, T/C (second compound 10 µM, first compound 0.0949 µM) of 3.42% and a viability, T/C (second compound 10 µM, first compound 0.3 µM) of 1.8%.
